B1: AP-101 (antibody, V domains shown)
VH: EVQLVESGAEVKKPGASVTLSCKASGYTFTAYYIHWVRQAREQGLEWMGVINPSTGTTFYAQNFPDRVSVTRDTSTSTVFMELHNLKSEDTAVYYCARAISEHGSGSYSPYYWGQGTLVTVSS
VL: SYVLTQPPSVSVSLGQMAAITCSGEALPKKYGYWYQQKPGQVPVLLIYRDVERPSGVPDRFSGSSSGTMVTLTISGVQAEDEADYYCLSADSSGTWVFGGGTKLTVL
B2: ^natZr-DFO-AP-101 (antibody, human IgG1, V domains shown)
VH: B1 VH
VL: B1 VL
modifications: p-SCN-Bn desferoxamine (DFO) chelator conjugated randomly on lysine residues; p-SCN-Bn desferoxamine (DFO) chelator conjugated randomly on lysine residues, DFO:AP-101 ratio 1.1:1.0; natZr complexed
notes: also called DFO-α-miSOD1
B3: Degly-^natZr-DFO-AP-101 (antibody, human IgG1, V domains shown)
VH: B1 VH
VL: B1 VL
modifications: DFO chelator conjugated randomly on lysine residues; Fc N-glycans removed with EndoS2 (GlycINATOR); DFO chelator on lysine residues, average 0.6 DFO per antibody; natZr complexed

How the values were obtained:
mSOD1 aggregates = assay: PET imaging of spinal cord mSOD1 aggregates (spots); assay type: in vivo, mice
Description: Under isoflurane anesthesia. […] Imaging days post administration of the radiotracer were optimized as the first results were collected the last groups being imaged only at days 7 and 10. Once the radiotracer administrated, the mouse was placed in its cage to recuperate from anesthesia and returned to the housing facility.
PET imaging was performed on days 7 and 10 following the administration of the radiotracer. Imaging was done on a LabPET-2 PET scanner (https://imagingrt.com/. Bore size: 72 mm. Axial FOV: 50 mm. Transaxial FOV: 60 mm. Spatial resolution: 0.74 mm (Isotropic at 5 mm from center). Detection efficiency (250-650 keV): 3.3% dedicated to small animal imaging. Preparation and PET imaging was done under isoflurane anesthesia delivered through a nose cone (Induction 2-3% isoflurane then 1 - 2.5%. 1-1.5 L of oxygen/min) the level of anesthesia being modulated if required during PET imaging. An ophthalmic gel was applied to the eyes to prevent eye dryness. The mouse was positioned within the field of view of the PET imager and a 30 min static acquisition was performed then the bed of the imager was moved within the CT module of the LabPET8 scanner, and a 2 min CT acquisition was performed. During PET imaging, the mouse was kept warm using pulsed hot air maintained at 32 °C, the environment temperature and respiration rate being monitored throughout the imaging procedure (PCSAM. Model 1025T Monitoring & Gating System, SA Instruments Inc.). Once the imaging procedure was completed, the mouse was placed in its cage to recuperate from anesthesia and returned to the housing facility.
PET data were acquired in list mode and reconstructed on a 200 x 200 x 168 grid with 0.3 x 0.3 x 0.3 mm^3 voxel size using 16 iterations and 8 subset of the 3D Ordered Subset Expectation Maximization (OSEM) algorithm. All PET images were corrected for the physical radionuclide decay of ^89Zr and random coincidences. […]
Once reconstructed the PET images were visually inspected to identify potential mSOD1 aggregates, which appear as discrete radiotracer spots within the spinal cord. […] The criteria for validity were that the spot was well defined within the spinal cord and not contaminated by radioactivity spilled in form the presence of the radiotracer in the anterior portion of the vertebra. […]
Once located region of interest (ROI) was then traced around these spots and the measure radiotracer content corrected for the partial volume effect (PVE) using the recovery coefficient and for spill-in from the presence of free ^89Zr in the anterior part of the vertebra (Fig. 4). […] The radioactivity content of m-SOD1 aggregated was expressed in terms of %ID/g.

denatured human SOD1 [1] = target: T1, denatured human SOD1 (human, UniProt P00441 2-154); assay: direct ELISA on denatured human SOD1 (Fig. 6A)
T1 construct: also called misfolded SOD1; mSOD1
T1 sequence (P00441 2-154 limits assumed): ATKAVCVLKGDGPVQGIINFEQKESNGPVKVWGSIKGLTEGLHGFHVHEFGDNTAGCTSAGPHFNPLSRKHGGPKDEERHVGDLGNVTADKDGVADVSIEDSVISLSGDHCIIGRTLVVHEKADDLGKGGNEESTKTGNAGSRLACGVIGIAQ

denatured human SOD1 [2] = target: T1, denatured human SOD1; assay: ELISA on misfolded SOD1 (refers to Fig. 6)
denatured human SOD1 [3] = target: T1, denatured human SOD1; assay: direct ELISA on denatured human SOD1 (mSOD1)

Row | Molecule | number of detected spots including false positive spots (mSOD1 aggregates; day 7 post administration) | number of detected spots including false positive spots (mSOD1 aggregates; day 10 post administration) | EC50 (denatured human SOD1 [3]) | further results
1 | Degly-^89Zr-DFO-AP-101: ^89Zr-DFO-AP-101 in which the AP-101 antibody is deglycosylated | 6 spots | 12 spots |  | 
2 | ^89Zr-DFO-AP-101: AP-101 antibody, SCN-Bn-DFO as bifunctional chelator and ^89Zr as radionuclide; PET radiotracer | 6 spots | 18 spots |  | 
3 | B1 |  |  |  | EC50 (denatured human SOD1 [1]): 0.2 nM
4 | B2 |  |  | 0.3 nM | EC50 (denatured human SOD1 [2]): 0.5 nM
5 | B3 |  |  | 2.4 nM | 

— patent EP4454666A1, “IN VIVO IMAGING OF AN ALS BIOMARKER AND MEANS THEREFOR” (Société de Commercialisation des Produits de la Recherche …, priority 2023, dated 2024)
